Our source for the IC50 values is ChEMBL document CHEMBL1126959, “HMG-CoA reductase inhibitors: design, synthesis, and biological activity of tetrahydroindazole-substituted 3,5-dihydroxy-6-heptenoic acid sodium salts” (J Med Chem, 1993).

For experiment [1], the system named is HepG2. The experiment is described as follows: Tested for ability to inhibit incorporation of [14C]acetate into cholesterol in cultured human hepatoma (HEP-G2) cells; 0.73-91. The format is functional, cell-based.
The target in experiment [2] is T1, 3-hydroxy-3-methylglutaryl-coenzyme A reductase (Rattus norvegicus, UniProt P51639).
T1 sequence (P51639 whole entry): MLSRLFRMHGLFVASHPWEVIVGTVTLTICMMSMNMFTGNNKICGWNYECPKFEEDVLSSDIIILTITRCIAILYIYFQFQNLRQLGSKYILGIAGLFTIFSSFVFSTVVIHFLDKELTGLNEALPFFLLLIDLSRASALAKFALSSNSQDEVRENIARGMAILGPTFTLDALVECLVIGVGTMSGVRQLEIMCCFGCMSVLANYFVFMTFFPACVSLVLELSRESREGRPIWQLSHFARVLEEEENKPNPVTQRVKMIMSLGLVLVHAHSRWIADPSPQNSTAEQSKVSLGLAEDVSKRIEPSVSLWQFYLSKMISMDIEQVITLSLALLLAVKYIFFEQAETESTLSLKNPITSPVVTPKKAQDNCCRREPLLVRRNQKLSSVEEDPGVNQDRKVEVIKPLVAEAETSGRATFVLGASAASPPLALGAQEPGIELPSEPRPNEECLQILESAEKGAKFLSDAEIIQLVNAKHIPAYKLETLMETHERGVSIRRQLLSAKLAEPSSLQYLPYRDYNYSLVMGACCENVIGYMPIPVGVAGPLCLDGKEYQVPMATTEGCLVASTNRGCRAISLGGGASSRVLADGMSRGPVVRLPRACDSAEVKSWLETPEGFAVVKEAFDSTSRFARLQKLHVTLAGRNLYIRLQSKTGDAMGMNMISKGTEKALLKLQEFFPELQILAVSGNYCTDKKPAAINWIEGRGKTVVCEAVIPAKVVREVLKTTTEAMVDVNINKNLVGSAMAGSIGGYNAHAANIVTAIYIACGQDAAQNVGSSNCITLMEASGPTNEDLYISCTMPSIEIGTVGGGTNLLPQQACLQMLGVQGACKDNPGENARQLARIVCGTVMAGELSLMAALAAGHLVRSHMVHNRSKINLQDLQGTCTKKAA
The experiment is described as follows: Inhibitory activity against partially purified rat liver HMG-CoA reductase in vitro; 0.73-10.

In experiment [3] the test system is HepG2. The experiment is described as follows: Tested for ability to inhibit incorporation of [14C]acetate into cholesterol in cultured human hepatoma (HEP-G2) cells; 0.31-2.4. The format is functional, cell-based.
Experiment [4] has as its target T1, 3-hydroxy-3-methylglutaryl-coenzyme A reductase. The experiment is described as follows: Inhibitory activity against partially purified rat liver HMG-CoA reductase in vitro; 0.12-0.21.
For experiment [5], the system named is HepG2. Put plainly: Tested for ability to inhibit incorporation of [14C]acetate into cholesterol in cultured human hepatoma (HEP-G2) cells; 0.56-2.2. The format is functional, cell-based.
The target in experiment [6] is T1, 3-hydroxy-3-methylglutaryl-coenzyme A reductase. Put plainly: Inhibitory activity against partially purified rat liver HMG-CoA reductase in vitro; 0.07-0.27.
Experiment [7] has the same target. Put plainly: Inhibitory activity against partially purified rat liver HMG-CoA reductase in vitro; 1.7-2.6.
For experiment [8] the target is unchanged. Put plainly: Inhibitory activity against partially purified rat liver HMG-CoA reductase in vitro; 1.8-3.7.
Experiment [9] deals with HepG2. The experiment is described as follows: Tested for ability to inhibit incorporation of [14C]acetate into cholesterol in cultured human hepatoma (HEP-G2) cells; 0.0071-23. It is filed as functional, cell-based.
Experiment [10] has as its target T1, 3-hydroxy-3-methylglutaryl-coenzyme A reductase. The experiment is described as follows: Inhibitory activity against partially purified rat liver HMG-CoA reductase in vitro; 0.16-0.24.
For experiment [11] the target is unchanged. Put plainly: Inhibitory activity against partially purified rat liver HMG-CoA reductase in vitro; 0.021-0.036.
Experiment [12] concerns HepG2. Put plainly: Tested for ability to inhibit incorporation of [14C]acetate into cholesterol in cultured human hepatoma (HEP-G2) cells; 0.26-0.80. The format is functional, cell-based.
Experiment [13] addresses T1, 3-hydroxy-3-methylglutaryl-coenzyme A reductase. Put plainly: Inhibitory activity against partially purified rat liver HMG-CoA reductase in vitro; 0.0073-0.017.
In experiment [14] the test system is HepG2. The experiment is described as follows: Tested for ability to inhibit incorporation of [14C]acetate into cholesterol in cultured human hepatoma (HEP-G2) cells; 0.019-0.14. The format is functional, cell-based.
Experiment [15] deals with T1, 3-hydroxy-3-methylglutaryl-coenzyme A reductase. Put plainly: Inhibitory activity against partially purified rat liver HMG-CoA reductase in vitro; 0.23-0.71.
The test system of experiment [16] is HepG2. Put plainly: Tested for ability to inhibit incorporation of [14C]acetate into cholesterol in cultured human hepatoma (HEP-G2) cells; 0.061-0.10. It is filed as functional, cell-based.
For experiment [17], the system named is HepG2. The experiment is described as follows: Tested for ability to inhibit incorporation of [14C]acetate into cholesterol in cultured human hepatoma (HEP-G2) cells; 0.44-3.0. The format is functional, cell-based.
Experiment [18] addresses T1, 3-hydroxy-3-methylglutaryl-coenzyme A reductase. The experiment is described as follows: Inhibitory activity against partially purified rat liver HMG-CoA reductase in vitro; 0.027-0.046.
The target is the same in experiment [19]. Put plainly: Inhibitory activity against partially purified rat liver HMG-CoA reductase in vitro; 2.6-4.8.
Experiment [20] has the same target. The experiment is described as follows: Inhibitory activity against partially purified rat liver HMG-CoA reductase in vitro; 1.2-3.3.
The test system of experiment [21] is HepG2. Put plainly: Tested for ability to inhibit incorporation of [14C]acetate into cholesterol in cultured human hepatoma (HEP-G2) cells; 0.70-1.4. The format is functional, cell-based.
Experiment [22] addresses T1, 3-hydroxy-3-methylglutaryl-coenzyme A reductase. The experiment is described as follows: Inhibitory activity against partially purified rat liver HMG-CoA reductase in vitro; 0.038-0.18.
In experiment [23] the test system is HepG2. The experiment is described as follows: Tested for ability to inhibit incorporation of [14C]acetate into cholesterol in cultured human hepatoma (HEP-G2) cells; 0.051-0.12. It is filed as functional, cell-based.
The target in experiment [24] is T1, 3-hydroxy-3-methylglutaryl-coenzyme A reductase. Put plainly: Inhibitory activity against partially purified rat liver HMG-CoA reductase in vitro; 3.8-19.

One may read the IC50 as the concentration at which inhibition is half-maximal. Low readings indicate greater potency, high ones weaker potency. Turning to `O=C(O)C[C@H](O)C[C@H](O)/C=C/c1c2c(nn1-c1ccc(F)cc1)C(c1ccccc1)CCC2` (stereo not given in full), the IC50 in the experiment on HepG2 [1] was determined as 8.1 µM; in experiment [2] it was 2800 nM.

For the compound `O=C(O)C[C@H](O)C[C@H](O)/C=C/c1c2c(nn1-c1ccc(F)cc1)C(CCCc1ccccc1)CCC2` (stereo not given in full), the IC50 with HepG2 [3] was found to be 870 nM; in experiment [4], 160 nM.

Consider `O=C(O)C[C@H](O)C[C@H](O)/C=C/c1c2c(nn1-c1ccc(F)cc1)C(Cc1ccc(Cl)cc1)CCC2` (stereo not given in full), for which the IC50 in the experiment on HepG2 [5] is 1100 nM; in [6] it was 140 nM.

Regarding `CC1CCCc2c1nn(-c1ccc(F)cc1)c2/C=C/[C@@H](O)C[C@@H](O)CC(=O)O` (stereo not given in full), 2100 nM corresponded to half-maximal inhibition in experiment [7] (IC50).

As for `O=C(O)C[C@H](O)C[C@H](O)/C=C/c1c2c(nn1-c1ccc(F)cc1)-c1ccccc1CCC2`, the IC50 in [8] was 2600 nM.

Turning to `O=C(O)C[C@H](O)C[C@H](O)/C=C/c1c2c(nn1-c1ccc(F)cc1)C(Cc1ccc(F)cc1)CCC2` (stereo not given in full), the IC50 with HepG2 [9] was 400 nM; in experiment [10] it was 200 nM.

On to `O=C(O)C[C@H](O)C[C@H](O)/C=C/c1c2c(nn1-c1ccc(F)cc1)C(Cc1cccc3ccccc13)CCC2` (stereo not given in full), for which the IC50 in experiment [11] stood at 28 nM; with HepG2 [12], 460 nM.

`CC[C@H](C)C(=O)O[C@H]1C[C@@H](C)C=C2C=C[C@H](C)[C@H](CC[C@@H]3C[C@@H](O)CC(=O)O3)C21` (stereo not given in full): the IC50 amounted to 9.2 nM in [13] and 50 nM in the experiment on HepG2 [14].

For the compound `CC[C@H](C)C(=O)O[C@H]1C[C@@H](C)C=C2C=C[C@H](C)[C@H](CC[C@@H]3C[C@@H](O)CC(=O)O3)[C@H]21` [LOVASTATIN], the figures for the half-maximal inhibitory concentration (IC50) (in experiment [15]; in the experiment with HepG2 [16]) were 400 nM and 79 nM, respectively.

Consider `COc1cccc(CC2CCCc3c2nn(-c2ccc(F)cc2)c3/C=C/[C@@H](O)C[C@@H](O)CC(=O)O)c1` (stereo not given in full), for which the IC50 is 1200 nM in the experiment on HepG2 [17] and 35 nM in experiment [18].

In the case of `O=C(O)C[C@H](O)C[C@H](O)/C=C/c1c2c(nn1-c1ccc(F)cc1)CCCCC2`, the midpoint of inhibition in experiment [19], the IC50, lay at 3.6 µM.

Compound `CCC1CCCc2c1nn(-c1ccc(F)cc1)c2/C=C/[C@@H](O)C[C@@H](O)CC(=O)O` (stereo not given in full) came in with an IC50 in [20] of 2000 nM.

As to `O=C(O)C[C@H](O)C[C@H](O)/C=C/c1c2c(nn1-c1ccc(F)cc1)C(C/C=C/c1ccccc1)CCC2` (stereo not given in full), the values for the IC50 (in the experiment with HepG2 [21]; in experiment [22]) were 1000 nM and 82 nM, respectively.

With `Cc1ccc(CC2CCCc3c2nn(-c2ccc(F)cc2)c3/C=C/[C@@H](O)C[C@@H](O)CC(=O)O)cc1` (stereo not given in full), the half-inhibitory concentration (IC50) in [11] was 28 nM; in the experiment on HepG2 [23], 78 nM.

With `O=C(O)C[C@H](O)C[C@H](O)/C=C/c1c2c(nn1-c1ccc(F)cc1)C(C1CCCCC1)CCC2` (stereo not given in full), inhibition in [24] was half-maximal at 8.5 µM (IC50).
